In patent US20150105252A1, “SUBSTITUTED PYRAZOLES AS HERBICIDES” (E I DU PONT DE NEMOURS AND COMPANY, priority 2013, published 2015):

Legend:
barnyardgrass [1] = assay: Test A preemergence; assay type: in vivo, Echinochloa crus-galli; details: preemergence; for Barnyardgrass plant response rating (0 to 100 scale, 0 is no effect, 100 is complete control): 125 g ai/ha, visual injury approx. 10 days after treatment; for Barnyardgrass plant response rating: 500 g ai/ha, visual injury after approx. 10 days, 0 to 100 scale (0 no effect, 100 complete control)
Method in brief: (§1)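 Visual injury ratings, 0 = no effect to 100 = complete control, taken about 10 days after treatment against untreated controls. Test chemicals, in a non-phytotoxic surfactant-containing solvent, were sprayed onto soil preemergence or onto one- to two-leaf plants (2–10 cm) postemergence, in loam–sand soil under greenhouse conditions.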

crabgrass, large [2] = assay: Test A preemergence; assay type: in vivo, Digitaria sanguinalis; details: preemergence; for Crabgrass, Large plant response rating (0 to 100 scale): 125 g ai/ha, visual injury approx. 10 days after treatment; for Crabgrass, Large plant response rating: 500 g ai/ha, visual injury after approx. 10 days, 0 to 100 scale (0 no effect, 100 complete control)
Method in brief: as §1

foxtail, giant [3] = assay: Test A preemergence; assay type: in vivo, Setaria faberii; details: preemergence; for Foxtail, Giant plant response rating (0 to 100 scale): 125 g ai/ha, visual injury approx. 10 days after treatment; for Foxtail, Giant plant response rating: 500 g ai/ha, visual injury after approx. 10 days, 0 to 100 scale (0 no effect, 100 complete control)
Method in brief: as §1

morningglory [4] = assay: Test A preemergence; assay type: in vivo, Ipomoea spp.; details: preemergence; for Morningglory plant response rating (0 to 100 scale): 125 g ai/ha, visual injury approx. 10 days after treatment; for Morningglory plant response rating: 500 g ai/ha, visual injury after approx. 10 days, 0 to 100 scale (0 no effect, 100 complete control)
Method in brief: as §1

pigweed [5] = assay: Test A preemergence; assay type: in vivo, Amaranthus retroflexus; details: preemergence; for Pigweed plant response rating (0 to 100 scale): 125 g ai/ha, visual injury approx. 10 days after treatment; for Pigweed plant response rating: 500 g ai/ha, visual injury after approx. 10 days, 0 to 100 scale (0 no effect, 100 complete control)
Method in brief: as §1

velvetleaf [6] = assay: Test A preemergence; assay type: in vivo, Abutilon theophrasti; details: preemergence; for Velvetleaf plant response rating (0 to 100 scale): 125 g ai/ha, visual injury approx. 10 days after treatment; for Velvetleaf plant response rating: 500 g ai/ha, visual injury after approx. 10 days, 0 to 100 scale (0 no effect, 100 complete control)
Method in brief: as §1

wheat [7] = assay: Test A preemergence; assay type: in vivo, Triticum aestivum; details: preemergence; for Wheat plant response rating (0 to 100 scale): 125 g ai/ha, visual injury approx. 10 days after treatment; for Wheat plant response rating: 500 g ai/ha, visual injury after approx. 10 days, 0 to 100 scale (0 no effect, 100 complete control)
Method in brief: as §1

corn [8] = assay: Test A preemergence; assay type: in vivo, Zea mays; details: preemergence; for Corn plant response rating (0 to 100 scale): 125 g ai/ha, visual injury approx. 10 days after treatment; for Corn plant response rating: 500 g ai/ha, visual injury after approx. 10 days, 0 to 100 scale (0 no effect, 100 complete control)
Method in brief: as §1

barnyardgrass [9] = assay: Test A postemergence; assay type: in vivo, Echinochloa crus-galli
Method in brief: as §1

crabgrass, large [10] = assay: Test A postemergence; assay type: in vivo, Digitaria sanguinalis
Method in brief: as §1

foxtail, giant [11] = assay: Test A postemergence; assay type: in vivo, Setaria faberii
Method in brief: as §1

morningglory [12] = assay: Test A postemergence; assay type: in vivo, Ipomoea spp.; details: Postemergence
Method in brief: as §1

pigweed [13] = assay: Test A postemergence; assay type: in vivo, Amaranthus retroflexus; details: Postemergence
Method in brief: as §1

velvetleaf [14] = assay: Test A postemergence; assay type: in vivo, Abutilon theophrasti; details: Postemergence
Method in brief: as §1

wheat [15] = assay: Test A postemergence; assay type: in vivo, Triticum aestivum; details: Postemergence
Method in brief: as §1

corn [16] = assay: Test A postemergence; assay type: in vivo, Zea mays
Method in brief: as §1

rice = assay: Test B flood; assay type: in vivo, Oryza sativa; details: 250 g ai/ha, visual rating on 0 to 100 scale (0 no effect, 100 complete control), 13 to 15 days
Method in brief: (§2)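 Paddy-water application: seedlings at 2-leaf stage, flood depth 3 cm maintained for the test duration. Evaluation after 13–15 days in the greenhouse by eye relative to controls; 0–100 scale.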

sedge, umbrella = assay: Test B flood; assay type: in vivo, Cyperus difformis; details: 250 g ai/ha, visual rating on 0 to 100 scale (0 no effect, 100 complete control), 13 to 15 days
Method in brief: as §2

ducksalad = assay: Test B flood; assay type: in vivo, Heteranthera limosa; details: 250 g ai/ha, visual rating on 0 to 100 scale (0 no effect, 100 complete control), 13 to 15 days
Method in brief: as §2

barnyardgrass [17] = assay: Test B flood; assay type: in vivo, Echinochloa crus-galli; details: 250 g ai/ha, visual rating on 0 to 100 scale (0 no effect, 100 complete control), 13 to 15 days
Method in brief: as §2

[18] = Postemergence, 500 g ai/ha, 0 to 100 scale (0 no effect, 100 complete control)
[19] = postemergence, 125 g ai/ha, about 10 days, visual rating on 0 to 100 scale (0 no effect, 100 complete control)
[20] = 125 g ai/ha, 0 to 100 scale, 0 no effect, 100 complete control
[21] = 500 g ai/ha, 0 to 100 scale (0 no effect, 100 complete control)

## CCCCc1cc(C(=O)NCCC)nn1Cc1ccnc(C(F)(F)F)c1 [Compound 190]
Barnyardgrass [1]
  Barnyardgrass plant response rating (0 to 100 scale, 0 is no effect, 100 is complete control): 0
  Barnyardgrass plant response rating: 60
crabgrass, large [2]
  Crabgrass, Large plant response rating (0 to 100 scale): 80
  Crabgrass, Large plant response rating: 100
foxtail, giant [3]
  Foxtail, Giant plant response rating (0 to 100 scale): 20
  Foxtail, Giant plant response rating: 90
Morningglory [4]
  Morningglory plant response rating (0 to 100 scale): 0
  Morningglory plant response rating: 30
Pigweed [5]
  Pigweed plant response rating (0 to 100 scale): 100
  Pigweed plant response rating: 100
Velvetleaf [6]
  Velvetleaf plant response rating (0 to 100 scale): 0
  Velvetleaf plant response rating: 20
Wheat [7]
  Wheat plant response rating (0 to 100 scale): 0
  Wheat plant response rating: 0
Corn [8]
  Corn plant response rating (0 to 100 scale): 0
  Corn plant response rating: 0
Barnyardgrass [9]; [18]
  Barnyardgrass plant response rating: 60
Barnyardgrass [9]; [19]
  Barnyardgrass plant response rating: 10
crabgrass, large [10]; [18]
  Crabgrass, Large plant response rating: 70
crabgrass, large [10]; [19]
  Crabgrass, Large plant response rating: 20
foxtail, giant [11]; [18]
  Foxtail, Giant plant response rating: 60
foxtail, giant [11]; [19]
  Foxtail, Giant plant response rating: 20
Morningglory [12]; [20]
  Morningglory plant response rating: 100
Morningglory [12]; [21]
  Morningglory plant response rating: 90
Pigweed [13]; [20]
  Pigweed plant response rating: 100
Pigweed [13]; [21]
  Pigweed plant response rating: 90
Velvetleaf [14]; [20]
  Velvetleaf plant response rating: 100
Velvetleaf [14]; [21]
  Velvetleaf plant response rating: 80
Wheat [15]; [20]
  Wheat plant response rating: 80
Wheat [15]; [21]
  Wheat plant response rating: 10
Corn [16]; [18]
  Corn plant response rating: 40
Corn [16]; [19]
  Corn plant response rating: 10
rice
  Plant response rating, Rice: 0
sedge, umbrella
  Plant response rating, Sedge, Umbrella: 45
ducksalad
  Plant response rating, Ducksalad: 0
Barnyardgrass [17]
  Plant response rating, Barnyardgrass: 0

## CCCNC(=O)c1cc(C)n(Cc2ccnc(C(F)(F)F)c2)n1 [Compound 191]
Barnyardgrass [1]
  Barnyardgrass plant response rating (0 to 100 scale, 0 is no effect, 100 is complete control): 20
  Barnyardgrass plant response rating: 100
crabgrass, large [2]
  Crabgrass, Large plant response rating (0 to 100 scale): 100
  Crabgrass, Large plant response rating: 100
foxtail, giant [3]
  Foxtail, Giant plant response rating (0 to 100 scale): 100
  Foxtail, Giant plant response rating: 100
Morningglory [4]
  Morningglory plant response rating (0 to 100 scale): 90
  Morningglory plant response rating: 100
Pigweed [5]
  Pigweed plant response rating (0 to 100 scale): 100
  Pigweed plant response rating: 100
Velvetleaf [6]
  Velvetleaf plant response rating (0 to 100 scale): 10
  Velvetleaf plant response rating: 100
Wheat [7]
  Wheat plant response rating (0 to 100 scale): 0
  Wheat plant response rating: 70
Corn [8]
  Corn plant response rating (0 to 100 scale): 10
  Corn plant response rating: 60
Barnyardgrass [9]; [18]
  Barnyardgrass plant response rating: 100
Barnyardgrass [9]; [19]
  Barnyardgrass plant response rating: 70
crabgrass, large [10]; [18]
  Crabgrass, Large plant response rating: 90
crabgrass, large [10]; [19]
  Crabgrass, Large plant response rating: 80
foxtail, giant [11]; [18]
  Foxtail, Giant plant response rating: 90
foxtail, giant [11]; [19]
  Foxtail, Giant plant response rating: 80
Morningglory [12]; [20]
  Morningglory plant response rating: 90
Morningglory [12]; [21]
  Morningglory plant response rating: 90
Pigweed [13]; [20]
  Pigweed plant response rating: 100
Pigweed [13]; [21]
  Pigweed plant response rating: 100
Velvetleaf [14]; [20]
  Velvetleaf plant response rating: 90
Velvetleaf [14]; [21]
  Velvetleaf plant response rating: 100
Wheat [15]; [20]
  Wheat plant response rating: 80
Wheat [15]; [21]
  Wheat plant response rating: 60
Corn [16]; [18]
  Corn plant response rating: 100
Corn [16]; [19]
  Corn plant response rating: 60
rice
  Plant response rating, Rice: 0
sedge, umbrella
  Plant response rating, Sedge, Umbrella: 55
ducksalad
  Plant response rating, Ducksalad: 80
Barnyardgrass [17]
  Plant response rating, Barnyardgrass: 0

## CCc1cc(C(=O)NN(C)C)nn1Cc1ccnc(C(F)(F)F)c1 [Compound 192]
Barnyardgrass [1]
  Barnyardgrass plant response rating (0 to 100 scale, 0 is no effect, 100 is complete control): 0
  Barnyardgrass plant response rating: 0
crabgrass, large [2]
  Crabgrass, Large plant response rating (0 to 100 scale): 0
  Crabgrass, Large plant response rating: 10
foxtail, giant [3]
  Foxtail, Giant plant response rating (0 to 100 scale): 0
  Foxtail, Giant plant response rating: 0
Morningglory [4]
  Morningglory plant response rating (0 to 100 scale): 0
  Morningglory plant response rating: 10
Pigweed [5]
  Pigweed plant response rating (0 to 100 scale): 0
  Pigweed plant response rating: 0
Velvetleaf [6]
  Velvetleaf plant response rating (0 to 100 scale): 0
  Velvetleaf plant response rating: 0
Wheat [7]
  Wheat plant response rating (0 to 100 scale): 0
  Wheat plant response rating: 0
Corn [8]
  Corn plant response rating (0 to 100 scale): 0
  Corn plant response rating: 0
Barnyardgrass [9]; [18]
  Barnyardgrass plant response rating: 30
Barnyardgrass [9]; [19]
  Barnyardgrass plant response rating: 10
crabgrass, large [10]; [18]
  Crabgrass, Large plant response rating: 20
crabgrass, large [10]; [19]
  Crabgrass, Large plant response rating: 10
foxtail, giant [11]; [18]
  Foxtail, Giant plant response rating: 30
foxtail, giant [11]; [19]
  Foxtail, Giant plant response rating: 10
Morningglory [12]; [20]
  Morningglory plant response rating: 30
Morningglory [12]; [21]
  Morningglory plant response rating: 90
Pigweed [13]; [20]
  Pigweed plant response rating: 80
Pigweed [13]; [21]
  Pigweed plant response rating: 90
Velvetleaf [14]; [20]
  Velvetleaf plant response rating: 50
Velvetleaf [14]; [21]
  Velvetleaf plant response rating: 80
Wheat [15]; [20]
  Wheat plant response rating: 0
Wheat [15]; [21]
  Wheat plant response rating: 10
Corn [16]; [18]
  Corn plant response rating: 50
Corn [16]; [19]
  Corn plant response rating: 20
rice
  Plant response rating, Rice: 0
sedge, umbrella
  Plant response rating, Sedge, Umbrella: 0
ducksalad
  Plant response rating, Ducksalad: 0
Barnyardgrass [17]
  Plant response rating, Barnyardgrass: 0
